From publication PMC12717121, “ABA-independent PP2C-binding in PYLs traces to bacterial origins and persists in land plants” (Nature Communications, 2025)

What was measured:
[1] = molecular target: T1, ABI1 (AtABI1) (Arabidopsis thaliana, UniProt P49597); test: phosphatase assay, A405; assay type: biochemical; conditions: 50 mM pNPP, 0.5 μM PP2C, 33 mM Tris-OAc pH 7.9, 25 mM Mg(OAc)2
T1 construct: GST-ABI1 (pGEX-6P-1), E. coli BL21(DE3)
T1 sequence (P49597 1-434): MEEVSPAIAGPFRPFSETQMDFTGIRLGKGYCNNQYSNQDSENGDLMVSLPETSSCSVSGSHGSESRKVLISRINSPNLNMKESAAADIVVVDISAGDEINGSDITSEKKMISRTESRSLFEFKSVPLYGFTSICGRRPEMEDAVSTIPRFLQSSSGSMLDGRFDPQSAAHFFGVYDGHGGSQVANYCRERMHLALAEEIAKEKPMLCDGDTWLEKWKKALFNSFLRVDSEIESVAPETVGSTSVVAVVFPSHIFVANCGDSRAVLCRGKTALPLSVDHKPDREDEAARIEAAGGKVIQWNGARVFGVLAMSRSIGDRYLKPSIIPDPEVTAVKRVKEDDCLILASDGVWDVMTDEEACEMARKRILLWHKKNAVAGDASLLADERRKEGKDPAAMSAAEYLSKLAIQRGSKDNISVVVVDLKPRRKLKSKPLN

[2] = molecular target: T2, PP2CA (AtPP2CA) (Arabidopsis thaliana, UniProt P49598); test: phosphatase assay, A405; assay type: biochemical; conditions: 50 mM pNPP, 0.5 μM PP2C, 33 mM Tris-OAc pH 7.9, 25 mM Mg(OAc)2
T2 construct: GST-PP2CA (pGEX-6P-1), E. coli BL21(DE3)
T2 sequence (P49598 1-399): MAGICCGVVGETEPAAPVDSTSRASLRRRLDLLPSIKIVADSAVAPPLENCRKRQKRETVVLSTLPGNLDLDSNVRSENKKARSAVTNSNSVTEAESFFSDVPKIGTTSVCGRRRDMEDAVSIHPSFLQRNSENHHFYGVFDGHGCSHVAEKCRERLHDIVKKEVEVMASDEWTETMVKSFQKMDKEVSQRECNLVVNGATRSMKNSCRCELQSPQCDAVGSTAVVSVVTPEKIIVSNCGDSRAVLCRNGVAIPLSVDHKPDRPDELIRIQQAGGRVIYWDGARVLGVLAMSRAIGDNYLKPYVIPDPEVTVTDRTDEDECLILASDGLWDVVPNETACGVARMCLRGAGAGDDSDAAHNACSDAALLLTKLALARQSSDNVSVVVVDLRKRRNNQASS

O=[N+]([O-])c1ccc(OP(=O)(O)O)cc1 [pNPP]
phosphatase assay, A405 [1]: Initial reaction velocities for GST-PP2Cs were measured using the synthetic phosphatase substrate pNPP | phosphatase assay, A405 [2]: Initial reaction velocities for GST-PP2Cs were measured using the synthetic phosphatase substrate pNPP
